pIC50: −log10 of the molar value. Where two headings read alike, the source gives them in different places.
Tests used:
[1] = tested on: SK-MEL 25 (melanoma); experiment: Cytotoxicity assay, 2 h drug exposure at pH 6.8 or 7.4, crystal violet staining; type: cell-based, human; conditions: then 48 h
Description: (§1) The Pd-complexes were dissolved in acetone (1 mg/ml stock solution). Human cancer cell lines SK-MEL 25 (melanoma) and CALU-6 (lung cancer) were used for the determination of the cytotoxic activity of Pd-complexes. For comparison, the well known anti-tumor drugs cisplatin and corresponding platinum complexes were included. Cells were seeded at a density of 2×10^6 cells/96 well plate. After 24 h, tissue culture medium was removed and fresh medium supplemented with 10% fetal calf serum and 100 units/ml penicillin/streptomycin containing either 2.2 g/l (pH 7.4) or 0.85 g/l (pH 6.8) NaHCO3 was added. After 1 hour of equilibration in an atmosphere containing 5% CO2, drugs were added at various concentrations (50, 25, 12.5, 6.25, 3.1, 1.6, 0.8 μg/ml) in quadruplicate. Untreated cultures served as controls. Two hours later, the culture medium was replaced with 0.1 ml of fresh tissue culture medium (pH 7.4, 10% fetal calf serum). Culture plates were then incubated for 48 h (SK-MEL 25) or 72 h (Calu-6) at 37° C. Then, cells were fixed with 3% formaldehyde and stained with 1% crystalviolet. The number of viable cells is proportional to the amount of bound cristalviolet. Therefore, the relative cell number could be determined at an Antos 2001 ELISA reader (550 nm). Dose response curves were established from the OD data and the concentration at which the cell number was reduced to 50% of the control (IC50) was determined.

[2] = tested on: CALU-6 (lung cancer); experiment: as above; type: cell-based, human; conditions: then 72 h
Description: as §1

[3] = SK-MEL 25, pH 6.8, 2 h drug exposure, read-out: IC50-values, SK-MEL 25, pH 6.8
[4] = SK-MEL 25, pH 7.4, 2 h drug exposure, read-out: IC50-values, SK-MEL 25, pH 7.4
[5] = CALU-6, pH 6.8, 2 h drug exposure, read-out: IC50-values, CALU-6, pH 6.8
[6] = CALU-6, pH 7.4, 2 h drug exposure, read-out: IC50-values, CALU-6, pH 7.4

Compound | pIC50 [1, 3] | pIC50 [1, 4] | pIC50 [2, 5] | pIC50 [2, 6]
CC(C)OC(=S)[S-].CC(C)OC(=S)[S-].[Pt+2] [Bis(O-isopropyl-dithiocarbonato)platin, reference compound] | 5.22 | 4.92 | 5.22 | 5.00
CCCCOC(=S)[S-].CCCCOC(=S)[S-].[Pd+2] [compound 5, Bis(O-butyl-dithiocarbonato)palladium(II)] | 6.00 | 5.51 | 6.00 | 5.60
N.N.[Cl][Pt][Cl] [Cisplatin, reference compound] | 4.60 | 4.60 | 5.20 | 5.20
S=C([S-])OC1CCCCC1.S=C([S-])OC1CCCCC1.[Pd+2] [compound 1, Bis(O-cyclohexyl-dithiocarbonato)palladium(II)] | 5.22 | 5.00 | 5.70 | 5.40
COC(=S)[S-].COC(=S)[S-].[Pd+2] [compound 7, Bis(O-methyl-dithiocarbonato)palladium(II)] | 5.35 | 5.21 | 5.80 | 5.35
CCOC(=S)[S-].CCOC(=S)[S-].[Pt+2] [Bis(O-ethyl-dithiocarbonato) platin, reference compound] | 4.68 | 4.35 | 4.92 | 4.55
CCOC(=S)[S][Pd][S]C(=S)OCC [compound 3, Bis(O-ethyl-dithiocarbonato)palladium(II)] | 5.30 | 4.85 | 5.70 | 5.10
CCCCCCOC(=S)[S-].CCCCCCOC(=S)[S-].[Pd+2] [compound 6, Bis(O-hexyl-dithiocarbonato)palladium(II)] | 5.00 | 5.00 | 5.51 | 5.20
CCC(C)COC(=S)[S][Pd][S]C(=S)OCC(C)CC (stereo not shown) [compound 4, Bis(O-(2-methyl)-butyl-dithiocarbonato)palladium(II)] | 5.22 | 5.05 | 5.70 | 5.22
CC(C)OC(=S)[S][Pd][S]C(=S)OC(C)C [compound 2, Bis(O-isopropyl-dithiocarbonato)palladium(II)] | 6.10 | 5.89 | 6.22 | 5.80
